From paper PMC11783601, “Analogue-Sensitive Inhibition of Histone Demethylases Uncovers Member-Specific Function in Ribosomal Protein Synthesis” (Journal of the American Chemical Society, 2025)
Changes are numbered by the printed parent chain. In names and notes the source's numbering stands.

Assays:
KDM4A-F185A = target: T1, KDM4A-F185A (Homo sapiens, UniProt O75164, F185A); assay: MALDI-MS end-point demethylase assay on H3K9me3 peptide; type: biochemical
T1 construct: human KDM4A-jmjC domain (catalytic domain of KDM4A); 6xHis (N); host or cells: E. coli BL21 (DE3)
T1 sequence (O75164 142-308 F185A limits assumed): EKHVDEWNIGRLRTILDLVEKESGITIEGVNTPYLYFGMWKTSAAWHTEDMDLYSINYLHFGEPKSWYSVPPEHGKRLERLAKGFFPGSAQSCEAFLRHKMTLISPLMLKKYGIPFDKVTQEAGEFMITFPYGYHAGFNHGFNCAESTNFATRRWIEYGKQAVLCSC
Excerpt: To develop an appropriate inhibitor, we selected N-oxalyl glycine (NOG, 2) scaffold because of its structural similarity with 2OG and the ability to inhibit 2OG-utilizing enzymes including KDMs (Figure 1C).[29]−[31] Substituting −CH2– at C3 of 2OG with −NH– in NOG prevents its oxidative decarboxylation by KDMs, making the inhibitor cofactor-competitive. […] We synthesized a panel of eight NOG analogues (3–10), derived from L-amino acids, carrying varied steric substituents at C4, with the reasoning that a bulky substituent at C4 would selectively fit into the expanded pocket of F185A over wild type KDM4A (Figures 2B and S1–S6, Schemes S1 and S2). The inhibitory effect of each compound was determined based on the extent of enzyme-catalyzed demethylation of a canonical peptide substrate corresponding to the N-terminus of histone 3 carrying trimethylated lysine at position 9 (H3K9me3). […] Such orthogonal inhibition of the engineered demethylase constitutes a powerful chemical probe to study the functions of a specific member of an enzyme family without issues of off-target activity. […]
(§1) assay (Biorad) kit with BSA concentrations as a standard. […]
8. Demethylase activity of the wild type and mutant KDM4 proteins on peptide substrate To monitor enzymatic activity, a demethylase activity assay was optimized and then observed through MALDI-TOF.7 Each histone demethylase assay sample included either wild type or mutant enzyme (10µM KDM4A, 7.5µM KDM4C, 10µM KDM4D, or 1µM KDM4E), 10 µM peptide, 200 µM 2OG, 50 mM Tris pH 8, […], 0-200µM NOG analogue, and 2 mM L-ascorbic acid with a total assay volume of 10 µL. Fe(II) supplement and L-ascorbic acid […]
Lastly, the 2OG and peptide were […]
positive mode and analyzed on Bruker FlexAnalysis software. The percent demethylated peptide […]
(§2) the multiple demethylation events on the peptide. […]
varying concentrations (0-10 µM). […] The fluorescence intensity was measured with excitation = 340 nm and emission = 490 nm on a TECAN Infinite M1000Pro. […]
The set up and analysis for IC50 of L-Leu NOG against KDM4A F185A enzyme was similar to that described in the coupled fluorescence assay section, but adjusted to function as an end point assay. […]
and varying concentration of compounds (NOGs 6, 9 and 10) and a substrate cocktail (200 µM 2OG and 60 µM H3K9me3 peptide). Different concentrations of NOG 6 were measured at one time point ranging for 1-5 hours. For 9 and 10, the same set-up remained, but enzymatic activity was measured via MALDI-TOF analysis, and relative activity and inhibition was calculated for different NOG concentrations as described above. […]
and analyzed on Bruker FlexAnalysis software. The percent demethylated peptide was calculated by first multiplying the K27me1 peak by 2 and the K27me0 peak by 3 to account for the multiple

wild type KDM4A [1] = target: T2, wild type KDM4A (Homo sapiens, UniProt O75164); assay: Coupled fluorescence (FDH/NADH) assay, kinetic parameters with 2OG; type: biochemical; conditions: H3K9me3 demethylation, saturating peptide, 2OG as cofactor
T2 construct: human KDM4A-jmjC domain (catalytic domain of KDM4A); 6xHis (N); host or cells: E. coli BL21 (DE3)
T2 sequence (O75164 142-308 limits assumed): T1 sequence (O75164 142-308 F185A limits assumed) with A44F

wild type KDM4A [2] = target: T2, wild type KDM4A; assay: MALDI-MS end-point demethylase assay on H3K9me3 peptide; type: biochemical; conditions: H3K9me3 peptide, 200 µM 2OG, fixed concentration of NOG analogue
Excerpt: To develop an appropriate inhibitor, we selected N-oxalyl glycine (NOG, 2) scaffold because of its structural similarity with 2OG and the ability to inhibit 2OG-utilizing enzymes including KDMs (Figure 1C).[29]−[31] Substituting −CH2– at C3 of 2OG with −NH– in NOG prevents its oxidative decarboxylation by KDMs, making the inhibitor cofactor-competitive. […] We synthesized a panel of eight NOG analogues (3–10), derived from L-amino acids, carrying varied steric substituents at C4, with the reasoning that a bulky substituent at C4 would selectively fit into the expanded pocket of F185A over wild type KDM4A (Figures 2B and S1–S6, Schemes S1 and S2). The inhibitory effect of each compound was determined based on the extent of enzyme-catalyzed demethylation of a canonical peptide substrate corresponding to the N-terminus of histone 3 carrying trimethylated lysine at position 9 (H3K9me3). […] Such orthogonal inhibition of the engineered demethylase constitutes a powerful chemical probe to study the functions of a specific member of an enzyme family without issues of off-target activity.
as §1
8. […]
2 mM L-ascorbic acid with a total assay volume of 10 µL. Fe(II) supplement and L-ascorbic acid
Lastly, the 2OG and peptide were
positive mode and analyzed on Bruker FlexAnalysis software. The percent demethylated peptide
as §2

[3] = substrate: O=C(O)CCC(=O)C(=O)O; assay: purified protein, by the assay type; conditions: other: saturating H3K9me3 peptide; pH 8.0; 37.0 °C

Molecule: O=C(O)C(=O)N[C@@H](Cc1ccccc1)C(=O)O [compound 9, phenylalanine NOG]
- IC50 (KDM4A-F185A): 28.7 ± 1.3 µM

Molecule: O=C(O)CCC(=O)C(=O)O [compound 1, 2-oxoglutarate]
- kcat (wild type KDM4A [1]; listed as 2OG): 0.26 ± 0.01 min^–1
- kcat (wild type KDM4A [1]; listed as 2OG 1): 0.2562±0.0072 min^–1

Molecule: O=C(O)CNC(=O)C(=O)O [compound 2, N-oxalyl glycine, reference compound]
- inhibition of wild type KDM4A demethylase activity (MALDI-MS) (wild type KDM4A [2]): weakly inhibited
- inhibition of F185A mutant demethylase activity (MALDI-MS) (KDM4A-F185A; H3K9me3 peptide, 200 µM 2OG, fixed concentration of NOG analogue): weakly inhibited

Molecule: O=C(O)C(=O)N[C@@H](CC1CCCCC1)C(=O)O [compound 10, cyclohexyl NOG]
- IC50 (KDM4A-F185A): 4.7 ± 1.7 µM

B1: wild type KDM4A (Homo sapiens) (protein)
chain: T1 sequence (O75164 142-308 F185A limits assumed) with A44F
- Km [3]: 7.52 ± 1.2 µM

B2: KDM4A-F185A (Homo sapiens; F185A) (protein)
chain: T1 sequence (O75164 142-308 F185A limits assumed)
- Km [3]: 52 ± 11 µM
